{"source": "patent US11584711B2", "about": "“2,2,2-trifluoroacetic acid 1-(2,4-dimethylphenyl)-2-[(3-methoxyphenyl)methylene] method of making the same” (Abrexa Pharmaceuticals, Inc., priority 2018, dated 2023)", "key": {"[1]": {"assay": "Heat storage / variable temperature XRD form conversion", "type": "physicochemical", "conditions": "for form conversion by XRD: 40° C. oven over weekend", "protocol": "Recrystallization Using Heat: Amorphous/glass samples from Panel 1 were placed in a vacuum oven at 60° C. for 6 days. […] A sample of Form I was placed in a 40° C. in oven over a weekend."}, "[2]": {"assay": "Hygroscopicity-Dynamic Vapor Sorption (DVS)", "type": "physicochemical", "conditions": "25° C.; for tendency to hydrate formation (DVS): 0 to 95% RH; for total weight loss (DVS): at 95% RH", "protocol": "Hygroscopicity-Dynamic Vapor Sorption (DVS): DVS is a gravimetric screening technique that measures how quickly and how much of a solvent (water) is adsorbed by a sample. The relative humidity or vapor concentration surrounding the sample is varied while the change in mass of the sample is measured. […] The mass values at each relative humidity step are used to generate the isotherm. Isotherms are divided in two components: sorption for increasing humidity steps and desorption for decreasing humidity steps.\nThe samples were analyzed using a TA Q2000 automated dynamic vapor sorption analyzer. The samples were dried at 40° C. for 5 hours and then cooled to 25° C. with a dry nitrogen purge over them until they no longer lost mass at 0% RH. The samples were then subjected to 0 to 95% RH, back to 0% RH at 25° C. in 5% RH steps."}, "Grinding": {"assay": "Grinding", "type": "physicochemical", "conditions": "ball mill 1 minute at 4800 oscillations per minute", "protocol": "Grinding: Form I was ground using a Crescent Wig-L-Bug ball mill for 1 minute at 4800 oscillations per minute (3.2 m/s)."}, "[3]": {"assay": "Static Vapor Sorption Study", "type": "physicochemical", "conditions": "75% RH static humidity chamber, ambient temperature, after 5 and 12 days", "description": "Static Vapor Sorption Study: A […] vapor sorption study was done in a sealed humidity chamber with an automatic moisture sorption balance. Data collected during dynamic vapor sorption studies often are not at thermodynamic equilibrium. To determine if the Form I and Form II material form a hydrate over time, samples were monitored in a 75% static humidity chamber.\nIn these studies, samples were stored in open Petri dishes in a chamber containing a saturated salt solution to maintain the relative vapor pressure. A solution of saturated sodium chloride (75% RH) salt at ambient temperature was used.\nThe samples were examined gravimetrically after 5 and 12 days."}, "[4]": {"assay": "Polymorph screen summary of solid state forms", "type": "physicochemical", "conditions": "room temperature and pressure", "description": "The raw diffraction data generated from the polymorph screening experiments were categorized into two polymorphic forms. Samples of these different forms were used to perform additional experiments (DSC, TGA, HSM, etc.) to refine the forms.\nThe main result is the discovery of two anhydrous polymorphic forms of J147. The polymorphic forms isolated in this Example were designated I and II. At room temperature and pressure Form II is the thermodynamically form of J147. Form I is the metastable form at room temperature and pressure."}, "[5]": {"assay": "Competitive Slurry Experiments", "type": "physicochemical", "conditions": "ambient temperature and pressure", "protocol": "These experiments rely on the solubility differences of different polymorphic forms.\nThe slurry experiments were performed by exposing excess material of Forms I and II to a small volume of solvent/water and agitating the resulting suspensions for several days at ambient temperature. The solids were filtered and analyzed by XRD and DSC to determine the resulting form. To avoid possible desolvation or physical change after isolation, the sample was not dried before x-ray analysis."}, "[6]": {"assay": "Visual Solubility Measurement", "type": "physicochemical", "conditions": "thermodynamic from solid, ambient temperature, read-out: Approximate Solubility", "protocol": "Visual Solubility Measurement: Approximately 80 mg of J147 was placed into each of 25 vials. Solvent was added and vials were stirred for several minutes at ambient temperature, followed by visual observation for remaining solids. The solvent was incrementally added until the solids were dissolved, or until a maximum volume of solvent was added and the experiment was terminated. These stock solutions were used to set up further panels of experiments."}, "[7]": {"tested_on": "neurotoxicity pathways related to aging and neurodegenerative diseases", "conditions": "assays indicating distinct neurotoxicity pathways; cited from earlier work"}, "normal rodents": {"tested_on": "normal rodents", "conditions": "cited from earlier work"}, "[8]": {"tested_on": "transgenic AD mouse model", "conditions": "cited from earlier work"}}, "note": "“Also recorded” adds a separate entry of the source. Read-outs that look alike come from different tables or passages of the source.", "data": [{"smiles": "COc1cccc(/C=N/N(C(=O)C(F)(F)F)c2ccc(C)cc2C)c1", "note": "[Amorphous/glass samples from Panel 1]", "values": [{"measurement": "form by XRD after heating", "setting": "[1]; vacuum oven at 60° C. for 6 days", "value": "XRD pattern of Form II"}]}, {"smiles": "COc1cccc(C=NN(C(=O)C(F)(F)F)c2ccc(C)cc2C)c1", "note": "[Form I, 2,2,2-trifluoroacetic acid 1-(2,4-Dimethylphenyl)-2-[(3-methoxyphenyl)methylene]hydrazide]", "values": [{"measurement": "tendency to hydrate formation (DVS)", "setting": "[2]", "value": "does not appear to be prone to hydrate formation; also recorded: did not appear to be prone to hydrate formation"}, {"measurement": "total weight loss (DVS)", "setting": "[2]", "value": "approximately 0.5%"}, {"measurement": "form conversion by XRD", "setting": "[1]", "value": "conversion to Form II"}, {"measurement": "form conversion by variable temperature XRD", "setting": "[1]; held at 35° C. over a weekend", "value": "no form conversion"}, {"measurement": "form transformation by XRD after grinding", "setting": "Grinding", "value": "no transformation"}, {"measurement": "hydrate formation (gravimetric weight change)", "setting": "[3]", "value": "no hydrate formation"}, {"measurement": "Description (thermodynamic stability of form)", "setting": "[4]", "value": "Metastable"}]}, {"smiles": "COc1cccc(C=NN(C(=O)C(F)(F)F)c2ccc(C)cc2C)c1", "note": "[Form II, 2,2,2-trifluoroacetic acid 1-(2,4-Dimethylphenyl)-2-[(3-methoxyphenyl)methylene]hydrazide]", "values": [{"measurement": "tendency to hydrate formation (DVS)", "setting": "[2]", "value": "does not appear to be prone to hydrate formation"}, {"measurement": "total weight loss (DVS)", "setting": "[2]", "value": "approximately 0.5%"}, {"measurement": "solubility and thermodynamic stability relative to Form I", "setting": "[5]", "value": "less soluble, more thermodynamically stable"}, {"measurement": "form conversion by XRD", "setting": "[1]", "value": "no form conversion"}, {"measurement": "hydrate formation (gravimetric weight change)", "setting": "[3]", "value": "no hydrate formation"}, {"measurement": "Description (thermodynamic stability of form)", "setting": "[4]", "value": "Thermodynamically"}]}, {"smiles": "COc1cccc(/C=N/N(C(=O)C(F)(F)F)c2ccc(C)cc2C)c1", "note": "[Form J147, 2,2,2-trifluoroacetic acid 1-(2,4-Dimethylphenyl)-2-[(3-methoxyphenyl)methylene] hydrazide]", "values": [{"measurement": "solubility", "setting": "[6]; organic solvent or mixture, 1-butanol", "value": 40, "unit": "mg/mL"}, {"measurement": "solubility", "setting": "[6]; organic solvent or mixture, 1-propanol", "value": "> 80", "unit": "mg/mL"}, {"measurement": "solubility", "setting": "[6]; organic solvent or mixture, 2-butanol", "value": 40, "unit": "mg/mL"}, {"measurement": "solubility", "setting": "[6]; organic solvent or mixture, 2-propanol", "value": 40, "unit": "mg/mL"}, {"measurement": "solubility", "setting": "[6]; organic solvent or mixture, acetone", "value": "> 80", "unit": "mg/mL"}, {"measurement": "solubility", "setting": "[6]; organic solvent or mixture, acetonitrile (ACN)", "value": "> 80", "unit": "mg/mL"}, {"measurement": "solubility", "setting": "[6]; organic solvent or mixture, butyl amine", "value": "> 80", "unit": "mg/mL"}, {"measurement": "solubility", "setting": "[6]; organic solvent or mixture, chloroform", "value": "> 80", "unit": "mg/mL"}, {"measurement": "solubility", "setting": "[6]; organic solvent or mixture, dichloromethane (DCM)", "value": "> 80", "unit": "mg/mL"}, {"measurement": "solubility", "setting": "[6]; organic solvent or mixture, dimethyl formamide (DMF)", "value": "> 80", "unit": "mg/mL"}, {"measurement": "solubility", "setting": "[6]; organic solvent or mixture, dimethylacetamide (DMA)", "value": "> 80", "unit": "mg/mL"}, {"measurement": "solubility", "setting": "[6]; organic solvent or mixture, ethanol", "value": "> 80", "unit": "mg/mL"}, {"measurement": "solubility", "setting": "[6]; organic solvent or mixture, ethyl acetate", "value": "> 80", "unit": "mg/mL"}, {"measurement": "solubility", "setting": "[6]; organic solvent or mixture, heptane", "value": 8, "unit": "mg/mL"}, {"measurement": "solubility", "setting": "[6]; organic solvent or mixture, isopropyl acetate", "value": "> 80", "unit": "mg/mL"}, {"measurement": "solubility", "setting": "[6]; organic solvent or mixture, isopropyl ether", "value": "> 80", "unit": "mg/mL"}, {"measurement": "solubility", "setting": "[6]; organic solvent or mixture, methanol", "value": "> 80", "unit": "mg/mL"}, {"measurement": "solubility", "setting": "[6]; organic solvent or mixture, methyl ethyl ketone (MEK)", "value": "> 80", "unit": "mg/mL"}, {"measurement": "solubility", "setting": "[6]; organic solvent or mixture, methyl tert butyl ether (MTBE)", "value": "> 80", "unit": "mg/mL"}, {"measurement": "solubility", "setting": "[6]; organic solvent or mixture, nitromethane", "value": "> 80", "unit": "mg/mL"}, {"measurement": "solubility", "setting": "[6]; organic solvent or mixture, pyridine", "value": "> 80", "unit": "mg/mL"}, {"measurement": "solubility", "setting": "[6]; organic solvent or mixture, tetrahydrofuran (THF)", "value": "> 80", "unit": "mg/mL"}, {"measurement": "solubility", "setting": "[6]; organic solvent or mixture, toluene", "value": "> 80", "unit": "mg/mL"}, {"measurement": "solubility", "setting": "[6]; organic solvent or mixture, trifluoroethanol", "value": "> 80", "unit": "mg/mL"}, {"measurement": "solubility", "setting": "[6]; water", "value": "< 1.6", "unit": "mg/mL"}, {"measurement": "EC50", "setting": "[7]", "value": "10 to 200", "unit": "nM"}, {"measurement": "effect on memory", "setting": "normal rodents", "value": "improve memory"}, {"measurement": "effect on synaptic proteins and cognitive decline", "setting": "[8]", "value": "prevent the loss of synaptic proteins and cognitive decline"}]}]}
